This note sets out measurements from patent US20110098296A1, “Thiazole And Oxazole Kinase Inhibitors” (priority 2007, published 2011).

In one experiment the target is T1, EGFR (Homo sapiens, UniProt P00533).
T1 construct: made in house; host or cells: baculovirus expression system
Kind of experiment: EGFR substrate phosphorylation assay (HTRF). It is filed as biochemical. The following applies: Method (A): Enzyme Mix incubated with compound at 20° C. for 1 hr, reaction started by adding Substrate Mix. The gist of the method: (§1)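 Baculovirus-expressed kinase (0.8 nM EGFR or 10 nM ErbB2 in enzyme mix) with Peptide C 0.8 μM and ATP 20 μM (substrate-mix levels), MOPS pH 7.5, MnCl2; 90 min, 20 °C, HTRF anti-phosphotyrosine. Method A adds 1 h enzyme–compound preincubation; B none. pIC50, final compound 0.00027–47.6 μM.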

A further experiment addresses T2, ErbB2 (Homo sapiens, UniProt P04626).
T2 construct: made in house; host or cells: baculovirus expression system
In words: ErbB-2 substrate phosphorylation assay (HTRF). It is filed as biochemical. The following applies: Method (A): Enzyme Mix incubated with compound at 20° C. for 1 hr, reaction started by adding Substrate Mix. The gist of the method: as §1

For another experiment, the system named is HN5 tumor cells. Kind of experiment: Method C: Cell Growth Inhibition Assay (CellTiter-Glo), HN5. The experiment is classed as cell-based. The following applies: Homo sapiens, 72 h, 3 days, 4-parameter fit. The gist of the method:
(§2)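 Cells plated at 500 cells/well, dosed next day with 10-point 1:3 dilution series (0.2% final DMSO) and grown 3 days at 37 °C, 5% CO2. CellTiter-Glo luminescence (total ATP) served as cell-number surrogate; inhibition relative to DMSO controls, IC50 interpolated by 4-parameter fit.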

The test system of a further experiment is BT474 tumor cells. In words: Method C: Cell Growth Inhibition Assay (CellTiter-Glo), BT474. It is filed as cell-based. The following applies: Homo sapiens, BT-474, 72 h, 3 days, 4-parameter fit.
Another experiment has as its system Colo205 tumor cells. Kind of experiment: Method C: Cell Growth Inhibition Assay (CellTiter-Glo), Colo205. It is filed as cell-based. The following applies: Homo sapiens, COLO 205, 72 h, 3 days, 4-parameter fit. The procedure, abridged:
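Growth inhibition is expressed as the concentration giving 50% inhibition relative to vehicle controls, derived from a 4-parameter fit. Tumor cells plated at 500 per well were exposed for 3 days to compound (0.2% DMSO) before total ATP was quantified by CellTiter-Glo.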

In another experiment the test system is SK-MEL-28 tumor cells. Kind of experiment: Method C: Cell Growth Inhibition Assay (CellTiter-Glo), SK-MEL-28. The experiment is classed as cell-based. As to conditions: Homo sapiens, SK-MEL-28, 72 h, 3 days, 4-parameter fit. The gist of the method:
as §2

The next experiment has as its system A375P F11s tumor cells. Kind of experiment: Method C: Cell Growth Inhibition Assay (CellTiter-Glo), A375P F11s. The experiment is classed as cell-based. As to conditions: Homo sapiens, 72 h, 3 days, 4-parameter fit. Here is the method: (§3) Human breast tumor cells (BT474) were cultured in RPMI (Mediatech 50-011-PB), containing 10% FBS (JRH Biosciences 12176) and 1% penicillin-streptomycin (Invitrogen 15140). Human head and neck tumor cells (HN5) were cultured in high glucose DMEM (Mediatech 50-013-PB) containing 10% FBS and 1% penicillin-streptomycin. Human colon tumor cells (Colo205) were cultured in RPMI (Mediatech 50-020-PB) containing 10% FBS and 1% penicillin-streptomycin. Human melanoma cancer cells (SK-MEL-28) were cultured in EMEM with nonessential amino acids (Mediatech 50-011-PB) containing 10% FBS, 1% sodium pyruvate (JT Baker 3354-04), and 1% penicillin-streptomycin. Human melanoma cancer cells (A375P F11s) were cultured in RPMI (Mediatech 50-020-PB) containing 10% FBS, 1% sodium pyruvate, and 1% penicillin-streptomycin. Human colon cancer cells (HT-29) were cultured in high glucose DMEM (Mediatech 50-013-PB) containing 10% FBS and 1% penicillin-streptomycin. Human melanoma cancer cells (SK-MEL-3) were cultured in McCoy's 5A (50-025-PB) containing 15% FBS, and 1% penicillin-streptomycin. All cell lines were maintained at 37° C. in a humidified 5% CO2, 95% air incubator. Cells were harvested using trypsin/EDTA (Invitrogen 25200), counted using an haemocytometer, and plated. For 96-well assays (using white full-area NUNC plates cat. #136102), cells were plated in 105 μL at the following densities (cells/well): HN5, 500; Colo205, 500; SK-MEL-28, 500; A375P-F11s, 500; HT-29, 500; SK-MEL-3, 500; and BT474, 3000. For 384-well assays (white full-area NUNC plates, cat. #781080), cells were plated in 48 μL at the following densities (cells/well): HN5, 500; Colo205, 500; SK-MEL-28, 500; A375P-F11s, 500; HT29, 500; SK-MEL-3, 500; and BT474, 2000.
(§4) The next day, compounds were diluted as follow: For 96-well assays, 13.5 μL of compound in DMSO were diluted using nine (9) serial 1:3 dilutions of 4.5 μL in 9 μL of DMSO. Medium (270 μl/well of RPMI with 10% FBS and 1% penicillin-streptomycin) was added to the plates. Aliquots (7 μl) were added to cells in the final assay giving a final DMSO concentration of 0.2%. For 384-well assays, 15 μL of compound in DMSO were diluted using nine (9) serial 1:3 dilutions of 5 μL in 10 μL of DMSO, followed by a further dilution of 5 μL of compound with 95 μL of medium, of which 2 μL were added to cells in the final assay giving a final DMSO concentration of 0.2%. Cells were incubated at 37° C., 5% CO2 for 3 days.
(§5) Total ATP was measured (as a surrogate estimate of cell number) using CellTiter-Glo® reagent (Promega G7571). Briefly, plates were removed from the incubator and allowed to equilibrate to room temperature for 30 minutes. CellTiter-Glo® (25 μL or 55 μL for 384-well or 96-well assays, respectively) reagent was added to each well and plates were shaken on an orbital plate shaker for 2 mins. Plates were incubated without shaking for a further 30 mins and read on an LJL Analyst GT reader in luminometer mode with an integration time of 0.5 seconds per well. Percent inhibition of cell growth was calculated relative to DMSO vehicle-treated control wells. Concentration of compound required to give 50% inhibition of vehicle-treated control cell growth (IC50) was interpolated using a 4-parameter fit for determining IC50 using the following equation: Y=A+((B−A)/(1+((C/X)̂D))) where X=IC50.

A further experiment has as its system HT-29 tumor cells. In words: Method C: Cell Growth Inhibition Assay (CellTiter-Glo), HT-29. The following applies: Homo sapiens, HT-29, 72 h, 3 days, 4-parameter fit. It is filed as cell-based. The procedure:
as §3, §4, §5

A further experiment concerns SK-MEL-3 tumor cells. Kind of experiment: Method C: Cell Growth Inhibition Assay (CellTiter-Glo), SK-MEL-3. The experiment is classed as cell-based. The following applies: Homo sapiens, SK-MEL3, 72 h, 3 days, 4-parameter fit. Here is the method:
as §3, §4, §5

T1 sequence (P00533 25-1210): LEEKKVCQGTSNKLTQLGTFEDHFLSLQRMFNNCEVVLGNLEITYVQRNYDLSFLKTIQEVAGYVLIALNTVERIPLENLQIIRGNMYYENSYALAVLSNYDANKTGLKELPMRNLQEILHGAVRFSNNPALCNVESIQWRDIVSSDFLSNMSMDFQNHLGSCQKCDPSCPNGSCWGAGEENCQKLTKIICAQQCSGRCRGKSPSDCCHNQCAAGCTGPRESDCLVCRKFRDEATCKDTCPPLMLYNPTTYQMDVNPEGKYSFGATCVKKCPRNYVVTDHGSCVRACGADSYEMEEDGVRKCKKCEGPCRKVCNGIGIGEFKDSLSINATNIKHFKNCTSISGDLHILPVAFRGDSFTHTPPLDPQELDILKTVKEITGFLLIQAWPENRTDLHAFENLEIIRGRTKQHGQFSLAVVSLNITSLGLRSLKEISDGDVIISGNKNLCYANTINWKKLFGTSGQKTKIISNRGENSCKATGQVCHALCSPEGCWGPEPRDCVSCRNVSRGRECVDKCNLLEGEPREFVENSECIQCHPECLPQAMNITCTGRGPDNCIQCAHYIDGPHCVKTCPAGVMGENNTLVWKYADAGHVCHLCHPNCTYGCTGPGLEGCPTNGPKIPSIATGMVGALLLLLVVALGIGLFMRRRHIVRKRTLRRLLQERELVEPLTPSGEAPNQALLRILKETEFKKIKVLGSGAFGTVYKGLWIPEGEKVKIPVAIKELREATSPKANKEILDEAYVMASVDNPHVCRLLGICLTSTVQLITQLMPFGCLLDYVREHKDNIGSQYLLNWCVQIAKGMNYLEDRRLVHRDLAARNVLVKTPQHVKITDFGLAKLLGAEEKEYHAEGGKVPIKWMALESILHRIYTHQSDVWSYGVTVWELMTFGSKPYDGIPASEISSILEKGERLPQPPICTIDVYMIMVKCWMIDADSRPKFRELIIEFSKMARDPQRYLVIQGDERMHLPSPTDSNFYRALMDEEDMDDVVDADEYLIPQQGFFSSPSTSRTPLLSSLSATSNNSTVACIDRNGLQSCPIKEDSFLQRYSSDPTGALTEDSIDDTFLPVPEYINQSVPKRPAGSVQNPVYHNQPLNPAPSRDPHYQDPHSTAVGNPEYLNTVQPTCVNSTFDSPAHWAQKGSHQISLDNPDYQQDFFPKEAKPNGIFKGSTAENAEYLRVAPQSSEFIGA
T2 sequence (P04626 23-1255): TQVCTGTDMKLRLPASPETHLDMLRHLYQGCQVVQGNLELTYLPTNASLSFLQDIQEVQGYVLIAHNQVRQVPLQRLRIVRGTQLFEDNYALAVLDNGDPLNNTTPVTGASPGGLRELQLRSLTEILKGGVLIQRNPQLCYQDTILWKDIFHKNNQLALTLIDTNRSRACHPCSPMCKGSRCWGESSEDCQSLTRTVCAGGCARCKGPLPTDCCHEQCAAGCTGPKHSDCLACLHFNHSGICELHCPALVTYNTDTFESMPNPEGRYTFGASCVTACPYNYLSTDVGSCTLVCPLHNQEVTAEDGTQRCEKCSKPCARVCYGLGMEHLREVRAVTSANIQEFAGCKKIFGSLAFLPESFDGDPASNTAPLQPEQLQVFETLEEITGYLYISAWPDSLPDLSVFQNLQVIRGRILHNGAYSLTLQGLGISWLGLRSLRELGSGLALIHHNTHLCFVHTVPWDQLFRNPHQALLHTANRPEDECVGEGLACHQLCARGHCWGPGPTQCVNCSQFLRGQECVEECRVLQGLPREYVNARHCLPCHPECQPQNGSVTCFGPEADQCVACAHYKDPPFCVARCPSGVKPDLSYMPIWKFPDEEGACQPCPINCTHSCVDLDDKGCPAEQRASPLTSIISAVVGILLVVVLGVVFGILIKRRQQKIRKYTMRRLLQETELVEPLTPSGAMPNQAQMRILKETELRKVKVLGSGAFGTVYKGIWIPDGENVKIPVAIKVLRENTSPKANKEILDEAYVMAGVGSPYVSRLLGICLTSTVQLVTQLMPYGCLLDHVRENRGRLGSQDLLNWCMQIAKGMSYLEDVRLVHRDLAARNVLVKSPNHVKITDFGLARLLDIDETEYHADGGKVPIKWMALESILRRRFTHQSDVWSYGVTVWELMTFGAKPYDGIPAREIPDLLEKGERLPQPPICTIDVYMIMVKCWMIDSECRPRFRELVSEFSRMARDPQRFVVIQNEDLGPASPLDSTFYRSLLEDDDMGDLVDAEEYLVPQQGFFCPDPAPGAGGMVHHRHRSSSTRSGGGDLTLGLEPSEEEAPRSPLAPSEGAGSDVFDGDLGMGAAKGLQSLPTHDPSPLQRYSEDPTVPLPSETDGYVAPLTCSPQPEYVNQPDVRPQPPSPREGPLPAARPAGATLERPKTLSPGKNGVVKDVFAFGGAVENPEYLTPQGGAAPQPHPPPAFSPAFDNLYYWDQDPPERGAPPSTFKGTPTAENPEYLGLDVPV

Turning to `CN1CCc2ccc(Nc3nccc(-c4sc(NCCCN5CCOCC5)nc4-c4cccc(NC(=O)c5c(F)cccc5F)c4)n3)cc2C1` [Example 31], the half-inhibitory concentration (IC50) at EGFR is less than 100 nM; at ErbB2, less than 100 nM; with HN5 tumor cells, less than 100 nM; with BT474 tumor cells it was 100 to 1000 nM; in the experiment with Colo205 tumor cells, 100 to 1000 nM; in the experiment with SK-MEL-28 tumor cells, more than 1000 nM. The IC50 with A375P F11s tumor cells, in the experiment with HT-29 tumor cells and with SK-MEL-3 tumor cells was 100 to 1000 nM each time.
With `COc1ccc(Nc2nccc(-c3sc(NC4CC4)nc3-c3cccc(NC(=O)c4c(F)cccc4F)c3)n2)cc1OCCN(C)C` [Example 32, N-{3-[2-(cyclopropylamino)-5-(2-{[3-{[2-(dimethylamino)ethyl]oxy}-4-(methyloxy)phenyl]amino}-4-pyrimidinyl)-1,3-thiazol-4-yl]phenyl}-2,6-difluorobenzamide], the IC50 on EGFR was less than 100 nM; on ErbB2, less than 100 nM; with HN5 tumor cells it was less than 100 nM; in the experiment with BT474 tumor cells it was 100 to 1000 nM; in the experiment on Colo205 tumor cells, 100 to 1000 nM; in the experiment on SK-MEL-28 tumor cells it was 100 to 1000 nM. Moreover, the IC50 with A375P F11s tumor cells, with HT-29 tumor cells and with SK-MEL-3 tumor cells was 100 to 1000 nM each time.
For `O=C(Nc1cccc(-c2nc(NC3CC3)sc2-c2ccnc(Nc3ccc(OCCN4CCCC4)c(F)c3)n2)c1)c1c(F)cccc1F` [Example 33, N-[3-(2-(Cyclopropylamino)-5-{2-[(3-fluoro-4-{[2-(1-pyrrolidinyl)ethyl]oxy}phenyl)amino]-4-pyrimidinyl}-1,3-thiazol-4-yl)phenyl]-2,6-difluorobenzamide], the IC50 at EGFR was less than 100 nM; on ErbB2, less than 100 nM; with HN5 tumor cells it was 100 to 1000 nM; in the experiment with BT474 tumor cells, less than 100 nM; with Colo205 tumor cells it was 100 to 1000 nM; with SK-MEL-28 tumor cells it was 100 to 1000 nM. For the same compound, the IC50 in the experiment on A375P F11s tumor cells, with HT-29 tumor cells and in the experiment with SK-MEL-3 tumor cells was 100 to 1000 nM in each case.
On to `CC(=O)Nc1nc(-c2cccc(NC(=O)c3c(F)cccc3F)c2)c(-c2ccnc(Nc3cccc(CN4CCCC4)c3)n2)s1` [Example 34, N-{3-[2-(Acetylamino)-5-(2-{[3-(1-pyrrolidinylmethyl)phenyl]amino}-4-pyrimidinyl)-1,3-thiazol-4-yl]phenyl}-2,6-difluorobenzamide], for which the IC50 at EGFR is less than 100 nM; at ErbB2, less than 100 nM; in the experiment with HN5 tumor cells, less than 100 nM; in the experiment on BT474 tumor cells it was less than 100 nM; in the experiment on Colo205 tumor cells it was 100 to 1000 nM; in the experiment on SK-MEL-28 tumor cells, 100 to 1000 nM. Further, the IC50 in the experiment on A375P F11s tumor cells, in the experiment with HT-29 tumor cells and in the experiment on SK-MEL-3 tumor cells was 100 to 1000 nM each time.
With `CN(C)CCOc1ccc(Nc2nccc(-c3sc(N(C)C)nc3-c3cccc(NC(=O)c4c(F)cccc4F)c3)n2)cc1` [Example 36, N-[3-(2-(Dimethylamino)-5-{2-[(4-{[2-(dimethylamino)ethyl]oxy}phenyl)amino]-4-pyrimidinyl}-1,3-thiazol-4-yl)phenyl]-2,6-difluorobenzamide], the IC50 is less than 100 nM at EGFR; less than 100 nM at ErbB2; less than 100 nM with HN5 tumor cells; less than 100 nM in the experiment with BT474 tumor cells; 100 to 1000 nM in the experiment with Colo205 tumor cells; more than 1000 nM in the experiment on SK-MEL-28 tumor cells. For the same compound, the IC50 is more than 1000 nM in the experiment with A375P F11s tumor cells, 100 to 1000 nM with HT-29 tumor cells and more than 1000 nM in the experiment with SK-MEL-3 tumor cells.
Take `CN(C)CCOc1ccc(Nc2nccc(-c3sc(N(C)C)nc3-c3cccc(NC(=O)c4c(F)cccc4F)c3)n2)cc1Cl` [Example 37, N-{3-[5-{2-[(3-Chloro-4-{[2-(dimethylamino)ethyl]oxy}phenyl)amino]-4-pyrimidinyl}-2-(dimethylamino)-1,3-thiazol-4-yl]phenyl}-2,6-difluorobenzamide]: the IC50 at EGFR is less than 100 nM; on ErbB2, less than 100 nM; in the experiment with HN5 tumor cells, 100 to 1000 nM; in the experiment with BT474 tumor cells, 100 to 1000 nM; in the experiment with Colo205 tumor cells, 100 to 1000 nM; with SK-MEL-28 tumor cells it was 100 to 1000 nM. The IC50 was 100 to 1000 nM in the experiment with A375P F11s tumor cells, 100 to 1000 nM in the experiment with HT-29 tumor cells and more than 1000 nM in the experiment on SK-MEL-3 tumor cells.
As to `CN1CCc2ccc(Nc3nccc(-c4sc(N(C)C)nc4-c4cccc(NC(=O)c5c(F)cccc5F)c4)n3)cc2C1` [Example 38], the IC50 on EGFR was less than 100 nM; at ErbB2, less than 100 nM; in the experiment with HN5 tumor cells, less than 100 nM; with BT474 tumor cells, 100 to 1000 nM; in the experiment on Colo205 tumor cells, 100 to 1000 nM; in the experiment on SK-MEL-28 tumor cells, 100 to 1000 nM. The IC50 in the experiment on A375P F11s tumor cells, in the experiment with HT-29 tumor cells and with SK-MEL-3 tumor cells was 100 to 1000 nM each time.
Turning to `CN(C)c1nc(-c2cccc(NC(=O)c3c(F)cccc3F)c2)c(-c2ccnc(Nc3cccc(CN4CCCC4)c3)n2)s1` [Example 39, N-{3-[2-(Dimethylamino)-5-(2-{[3-(1-pyrrolidinylmethyl)phenyl]amino}-4-pyrimidinyl)-1,3-thiazol-4-yl]phenyl}-2,6-difluorobenzamide], the IC50 at EGFR is less than 100 nM; at ErbB2, less than 100 nM; in the experiment on HN5 tumor cells it was 100 to 1000 nM; with BT474 tumor cells it was less than 100 nM; in the experiment with Colo205 tumor cells, 100 to 1000 nM; in the experiment on SK-MEL-28 tumor cells it was more than 1000 nM. The IC50 with A375P F11s tumor cells, with HT-29 tumor cells and with SK-MEL-3 tumor cells was 100 to 1000 nM throughout.
Consider `CN(C)c1nc(-c2cccc(NC(=O)c3c(F)cccc3F)c2)c(-c2ccnc(Nc3ccc(OCCN4CCCC4)c(Cl)c3)n2)s1` [Example 40, N-{3-[5-{2-[(3-Chloro-4-{[2-(1-pyrrolidinyl)ethyl]oxy}phenyl)amino]-4-pyrimidinyl}-2-(dimethylamino)-1,3-thiazol-4-yl]phenyl}-2,6-difluorobenzamide], for which the IC50 at EGFR was less than 100 nM; on ErbB2 it was less than 100 nM; in the experiment on HN5 tumor cells, 100 to 1000 nM; in the experiment on BT474 tumor cells, 100 to 1000 nM; in the experiment on Colo205 tumor cells, 100 to 1000 nM; with SK-MEL-28 tumor cells it was 100 to 1000 nM. The IC50 in the experiment on A375P F11s tumor cells, in the experiment on HT-29 tumor cells and with SK-MEL-3 tumor cells was 100 to 1000 nM in each case.
